Source: patent publication US5236904A, “Erection-inducing methods and compositions” (Senetek, plc, priority 1989, dated 1993)
Entries after “also recorded” stand apart in the source; their conditions may differ.

Columns and labels:
[1] = test system: human males; details: cited from earlier work; for priapism: treatment of impotence
[2] = test system: males with psychogenic or neurogenic dysfunction, severe atherosclerosis not involved; details: cited from earlier work; for erection on intracavernosal injection: severe atherosclerosis not involved
[3] = test system: males who are impotent due to severe atherosclerosis; details: cited from earlier work; for efficacy in impotence due to severe atherosclerosis: in vivo
[4] = test system: normal male; details: cited from earlier work
[5] = test system: human males; details: in vivo
Experimental: Priapism is a serious, deleterious side effect of treatment of erectile insufficiency with these drugs. Beyond the embarrassment that may be caused for some men, priapism is usually painful, irreversibly damages erectile tissue, and, to be relieved, requires bleeding or pharmacological intervention (e.g., injection of a sympathomimetic drug such as adrenaline).
Preferably 1 ml of the preferred composition is administered as a bolus by injection into a corpus cavernosum while the penis is constricted at its base with a tourniquet. About 5-10 minutes after the injection, the tourniquet is released and, if not already started before the tourniquet is released, sexual stimulation is begun.

[6] = test system: human suffering from impotence, of which severe atherosclerosis is a cause; experiment: Intracavernosal injection coupled with sexual stimulation in males with impotence caused by severe atherosclerosis; assay type: in vivo
Experimental: Thus, between about 0.1 ml and about 5 ml, and preferably about 1 ml, of a physiologically acceptable composition comprising one of VIP or PHM or a mixture thereof and an alpha-adrenergic blocker is administered as a bolus by intracavernosal injection during, or prior to the initiation of, sexual stimulation and preferably with the penis constricted at its base for between about 1 minute and about 15 minutes (preferably about 5 minutes-about 10 minutes) after the injection.

[7] = aqueous composition; cited from earlier work

COc1ccc(Cc2nccc3cc(OC)c(OC)cc23)cc1OC [papaverine]
pain after injection ([1]; even if priapism does not occur): painful, burning sensation in the first two or so minutes after the injection | fibrosis ([1]; repeated use): undesirable, extensive intracavernous fibrosis | priapism [1]: often results in priapism | erection on intracavernosal injection [2]: cause an erection sufficient for vaginal penetration | efficacy in impotence due to severe atherosclerosis [3]: ineffective; also recorded: not susceptible to treatment

human vasoactive intestinal peptide [VIP]
erectile response with sexual stimulation ([4]; as little as 1 μg (at 1 μg/ml of diluent), visual and/or vibration stimulation): facilitates full erection | erectile response without sexual stimulation ([4]; up to 20 μg (at 20 μg/ml of diluent), no sexual stimulation): only slight swelling (slight tumescence) of the penis but not an erection | systemic side effects due to administration ([1]; background statement): flushing of the skin and hypotension | priapism or burning pain on induction of an erection [5]: does not entail priapism or the burning pain | erection sufficient for vaginal penetration ([6]; 30 μg neuropeptide together with alpha-adrenergic blocker, in most cases): sufficient to induce an erection sufficient for vaginal penetration | treatment of impotence, neuropeptide in combination with an alpha-adrenergic blocker ([6]; intracavernosal injection with alpha-adrenergic blocker such as phentolamine or prazosin, coupled with sexual stimulation): treated effectively | induction of erections, neuropeptide alone ([6]; without alpha-adrenergic blocker): not effective | induction of erections, VIP alone coupled with sexual stimulation ([3]; impotent due to severe atherosclerosis): does not induce erections

Cc1ccc(N(CC2=NCCN2)c2cccc(O)c2)cc1 [phentolamine]
stability in solution [7]: lability | duration of erection ([2]; compared with papaverine or phenoxybenzamine): significantly shorter duration | erection on intracavernosal injection [2]: causes an erection sufficient for vaginal penetration | efficacy in impotence due to severe atherosclerosis [3]: not susceptible to treatment

CC(COc1ccccc1)N(CCCl)Cc1ccccc1 (centres unmarked) [phenoxybenzamine]
priapism [1]: often results in priapism | erection on intracavernosal injection [2]: cause an erection sufficient for vaginal penetration | efficacy in impotence due to severe atherosclerosis [3]: not susceptible to treatment
